The values that follow come from paper PMC11178820, “Synthesis of novel aryl-substituted 2-aminopyridine derivatives by the cascade reaction of 1,1-enediamines with vinamidinium salts to develop novel anti-Alzheimer agents” (Scientific Reports, 2024).

Test [1] deals with T1, AChE (Homo sapiens, UniProt P22303). Put plainly: biochemical. The note with it: for inhibition at 50 µM: read-out: AChE % inhibition at 50 µM. As for the experimental part:
(§1) Cholinesterase inhibitory activities of all analogs were evaluated spectrometrically using the modified Ellman method as previously reported. […] The absorbance of each well was measured at 415 nm using a microplate reader. IC50 and inhibition values were calculated with the software GraphPad Prism as the mean of three independent experiments and expressed as mean ± SEM[42],[43].

In test [2] the target is T2, BChE (Homo sapiens, UniProt P06276). Put plainly: BChE inhibition, modified Ellman method. Format: biochemical. Conditions: for inhibition at 50 µM: read-out: BChE % inhibition at 50 µM; for BChE inhibition, outcome in words: 50 µM screening. As for the experimental part: as §1
T2 sequence (P06276 29-602, species assumed): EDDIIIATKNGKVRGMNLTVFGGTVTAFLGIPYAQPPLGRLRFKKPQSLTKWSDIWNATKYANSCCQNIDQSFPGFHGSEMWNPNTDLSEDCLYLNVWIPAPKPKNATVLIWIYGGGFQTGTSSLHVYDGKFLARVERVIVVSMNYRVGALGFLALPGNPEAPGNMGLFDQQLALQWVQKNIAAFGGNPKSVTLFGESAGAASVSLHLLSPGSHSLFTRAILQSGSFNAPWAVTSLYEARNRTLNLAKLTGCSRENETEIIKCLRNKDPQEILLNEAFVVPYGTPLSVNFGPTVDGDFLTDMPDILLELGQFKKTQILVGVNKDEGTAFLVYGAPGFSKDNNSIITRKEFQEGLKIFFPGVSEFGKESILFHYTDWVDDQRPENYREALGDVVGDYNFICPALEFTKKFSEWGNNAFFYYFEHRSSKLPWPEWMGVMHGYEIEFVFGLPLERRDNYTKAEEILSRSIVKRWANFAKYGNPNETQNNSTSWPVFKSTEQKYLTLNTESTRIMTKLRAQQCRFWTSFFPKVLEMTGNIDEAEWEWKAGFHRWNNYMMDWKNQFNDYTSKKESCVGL
(In general: In Ellman's method for cholinesterases, released thiocholine reacts with DTNB.)

Test [3] concerns hAChE. Also noted: method as in PMID 23078965. The note with it: previously reported; cited from earlier work.
The subject of test [4] is hBChE. The arrangement: method as in PMID 23078965. Conditions: previously reported; cited from earlier work.
The target in test [5] is T1, AChE. Description: Enzyme kinetic study against AChE (Lineweaver–Burk). The test is classed as biochemical. The procedure: To investigate the type of inhibition of AChE and BChE, kinetic studies of 3m were conducted using various concentrations of ATCI or BTCI as a substrate.
(§2) A Lineweaver–Burk plot was generated to identify the type of inhibition and the Michaelis–Menten constant (Km) value was determined from plot between reciprocal of the substrate concentration (1/[S]) and reciprocal of enzyme rate (1/V) over the various inhibitor concentrations[44],[45].

Test [6] has as its target T2, BChE. Put plainly: Enzyme kinetic study against BChE (Lineweaver–Burk). Format: biochemical. The procedure:
as §2

Test [7] has as its target T1, AChE. The arrangement: method as in doi:10.5530/ijper.52.4.75. Conditions: previously reported; unit inferred; cited from earlier work.
Test [8] has as its target T2, BChE. The arrangement: method as in doi:10.5530/ijper.52.4.75. Conditions: previously reported; unit inferred; cited from earlier work.

SMILES strings stand for the structures. Entries after “also recorded” stand apart in the source; their conditions may differ. Like-named read-outs stand apart in the source and are kept apart here.

T1 sequence (P22303 32-614): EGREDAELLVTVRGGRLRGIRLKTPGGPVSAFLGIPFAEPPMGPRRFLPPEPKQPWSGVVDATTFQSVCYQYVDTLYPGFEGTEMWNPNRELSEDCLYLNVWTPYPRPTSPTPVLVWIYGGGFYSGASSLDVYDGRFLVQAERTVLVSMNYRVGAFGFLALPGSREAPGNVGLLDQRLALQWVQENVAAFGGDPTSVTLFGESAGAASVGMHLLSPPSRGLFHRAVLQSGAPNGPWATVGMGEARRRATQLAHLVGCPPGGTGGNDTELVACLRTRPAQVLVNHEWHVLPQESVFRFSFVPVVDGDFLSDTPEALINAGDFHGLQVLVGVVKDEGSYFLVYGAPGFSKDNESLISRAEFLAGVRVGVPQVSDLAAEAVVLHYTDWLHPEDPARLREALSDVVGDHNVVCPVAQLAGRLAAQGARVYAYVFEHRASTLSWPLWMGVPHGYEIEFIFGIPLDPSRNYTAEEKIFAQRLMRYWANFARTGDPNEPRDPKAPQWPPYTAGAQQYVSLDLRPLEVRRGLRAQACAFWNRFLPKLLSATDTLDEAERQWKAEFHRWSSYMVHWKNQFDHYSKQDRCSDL

On to `COc1ccc(Nc2ncc(-c3ccc(Cl)cc3)cc2[N+](=O)[O-])cc1` [3f, 5-(4-Chlorophenyl)-N-(4-methoxyphenyl)-3-nitropyridin-2-amine], for which the inhibition at 50 µM in test [1] (50 µM, mean ± S.E) turned out to be 33 ± 1.86%; in test [2] (50 µM, mean ± S.E) it was 31.7 ± 1.1%.
Take `N#Cc1cc(C#N)c(NCCCC2CCN(Cc3ccccc3)CC2)nc1N` [A]: the IC50 in test [3] was 0.0094 ± 0.0004 µM; in test [4], 6.6 ± 0.7 µM. In addition, the “selectivity against hAChE than hBChE” value in test [3] was 703 fold.
Regarding `Cc1ccccc1Nc1ncc(-c2cccc3ccccc23)cc1[N+](=O)[O-]` [3n, 5-(Naphthalen-1-yl)-3-nitro-N-(o-tolyl)pyridin-2-amine], the inhibition at 50 µM worked out at 40.7 ± 2.6% in test [1] (50 µM, mean ± S.E) and 38.9 ± 2.97% in test [2] (50 µM, mean ± S.E).
As to `COc1ccc(Nc2ncc(-c3ccc(F)cc3)cc2[N+](=O)[O-])cc1` [3c, 5-(4-Fluorophenyl)-N-(4-methoxyphenyl)-3-nitropyridin-2-amine], the inhibition at 50 µM in test [1] (50 µM, mean ± S.E) stood at 10.7 ± 2.31%; in test [2] (50 µM, mean ± S.E), 3.4 ± 1.63%. For the same molecule, the “BChE inhibition, outcome in words” value in test [2] was “almost inactive”.
Regarding `Cc1ccc(Nc2ncc(-c3ccc(Br)cc3)cc2[N+](=O)[O-])cc1` [3l, 5-(4-Bromophenyl)-3-nitro-N-(p-tolyl)pyridin-2-amine], the inhibition at 50 µM worked out at 24.9 ± 5.01% in test [1] (50 µM, mean ± S.E) and 6.96 ± 0.74% in test [2] (50 µM, mean ± S.E).
For `O=[N+]([O-])c1cc(-c2ccc(Cl)cc2)cnc1Nc1ccc(Cl)cc1` [3g, N,5-Bis(4-chlorophenyl)-3-nitropyridin-2-amine], the inhibition at 50 µM in test [1] (50 µM, mean ± S.E) stood at 17.8 ± 2.74%; in test [2] (50 µM, mean ± S.E) it was 12.3 ± 0.99%.
The matching figures for `COc1ccc(Nc2ncc(-c3ccc(Br)cc3)cc2[N+](=O)[O-])cc1` [3j, 5-(4-Bromophenyl)-N-(4-methoxyphenyl)-3-nitropyridin-2-amine]: 38.8 ± 3.27% and 46.1 ± 0.92%.
In the case of `Cc1ccc(Nc2ncc(-c3cccc4ccccc34)cc2[N+](=O)[O-])cc1` [3o, 5-(Naphthalen-1-yl)-3-nitro-N-(p-tolyl)pyridin-2-amine], the inhibition at 50 µM was found to be 35.6 ± 4.63% in test [1] (50 µM, mean ± S.E) and 22.8 ± 2.7% in test [2] (50 µM, mean ± S.E).
Turning to `O=[N+]([O-])c1cc(-c2cccc3ccccc23)cnc1Nc1cccc2ccccc12` [3q, N,5-Di(naphthalen-1-yl)-3-nitropyridin-2-amine], the inhibition at 50 µM in test [1] (50 µM, mean ± S.E) was 34 ± 2.39%; in test [2] (50 µM, mean ± S.E), 53.07 ± 0.42%.
Regarding `O=[N+]([O-])c1cc(-c2cccc3ccccc23)cnc1Nc1ccc(Cl)cc1` [3p, N-(4-Chlorophenyl)-5-(naphthalen-1-yl)-3-nitropyridin-2-amine], the inhibition at 50 µM was determined as 21.4 ± 1.86% in test [1] (50 µM, mean ± S.E) and 11.7 ± 0.12% in test [2] (50 µM, mean ± S.E).
The corresponding values for `O=[N+]([O-])c1cc(-c2ccc(Cl)cc2)cnc1Nc1cccc2ccccc12` [3i, 5-(4-Chlorophenyl)-N-(naphthalen-1-yl)-3-nitropyridin-2-amine] are 39.7 ± 1.67% and 35.3 ± 5.14%.
Regarding `O=[N+]([O-])c1cc(-c2ccc(Br)cc2)cnc1Nc1ccc(Cl)cc1` [3k, 5-(4-Bromophenyl)-N-(4-chlorophenyl)-3-nitropyridin-2-amine], the inhibition at 50 µM in test [1] (50 µM, mean ± S.E) worked out at 27.8 ± 1.75%; in test [2] (50 µM, mean ± S.E), 12.8 ± 1.7%.
On to `CC(C)(C)c1cc[n+](-c2cnc(Nc3ccc(Cl)cc3)c([N+](=O)[O-])c2)cc1.[O-][Cl+3]([O-])([O-])[O-]` [3m, 4-(Tert-butyl)-6ʹ-((4-chlorophenyl)amino)-5'-nitro-[1,3'-bipyridin]-1-ium perchlorate], for which, in test [1], inhibition was half-maximal at 34.8 ± 3.71 µM (IC50) and the inhibition at 50 µM worked out at 74.3 ± 5.86%. For the same molecule, in test [2], inhibition was half-maximal at 20.7 ± 1.01 µM (IC50), the “selectivity ratio for BChE over AChE” value is listed as 1.686 and the inhibition at 50 µM was determined as 76.7 ± 6.01%. Moreover, in test [5] (Lineweaver–Burk plot), the “type of inhibition, AChE” value is given as “mixed inhibition; also recorded: mix-type inhibition”. In test [5] (secondary plot of Lineweaver–Burk data, substrate ATCI, read-out: inhibition constant (Ki), AChE), the Ki was 8.92 µM. In addition, the “type of inhibition, BChE” value in test [6] (Lineweaver–Burk plot) is recorded as “mixed type of inhibition; also recorded: mix-type inhibition”. Besides, the “Kis, BChE” value in test [6] (plot of 1/Vmax vs inhibitor concentration, substrate BTCI) came to 46.27 µM. Affinity in test [6] (plot of slope vs inhibitor concentration, substrate BTCI) was put at a Ki of 17.5 µM.
With `Cc1ccc(Nc2ncc(-c3ccc(F)cc3)cc2[N+](=O)[O-])cc1` [3d, 5-(4-Fluorophenyl)-3-nitro-N-(p-tolyl)pyridin-2-amine], the inhibition at 50 µM in test [1] (50 µM, mean ± S.E) worked out at 39.4 ± 1.56%; in test [2] (50 µM, mean ± S.E), 46.4 ± 2.42%.
The corresponding values for `O=[N+]([O-])c1cc(-c2ccccc2)cnc1Nc1ccc(Cl)cc1` [3b, N-(4-Chlorophenyl)-3-nitro-5-phenylpyridin-2-amine] are 59.9 ± 11% and 27.5 ± 1.92%.
The corresponding values for `COc1ccc(Nc2ncc(-c3ccccc3)cc2[N+](=O)[O-])cc1` [3a, N-(4-Methoxyphenyl)-3-nitro-5-phenylpyridin-2-amine] are 28.1 ± 3.93% and 22.1 ± 0.33%.
As to `O=[N+]([O-])c1cc(-c2ccc(F)cc2)cnc1Nc1ccc(Cl)cc1` [3e, N-(4-Chlorophenyl)-5-(4-fluorophenyl)-3-nitropyridin-2-amine], the inhibition at 50 µM in test [1] (50 µM, mean ± S.E) is 19.3 ± 3.3%; in test [2] (50 µM, mean ± S.E), 19.6 ± 1.49%. Also, in test [2], the “BChE inhibition, outcome in words” value is “almost inactive”.
Turning to `O=C(N/N=C(/c1ccc(O)cc1)c1cccc(O)c1)Nc1ccncc1` [B], the IC50 in test [7] was 5.58 ± 0.016 µM; in test [8], 6.44 ± 0.65 µM.
`Cc1ccccc1Nc1ncc(-c2ccc(Cl)cc2)cc1[N+](=O)[O-]` [3h, 5-(4-Chlorophenyl)-3-nitro-N-(o-tolyl)pyridin-2-amine]: the inhibition at 50 µM in test [1] (50 µM, mean ± S.E) came out at 23.1 ± 8.61%; in test [2] (50 µM, mean ± S.E) it was 14.6 ± 1.95%.

In general, inhibition refers to the share of the control response that was lost under treatment. What is called IC50 is the midpoint of a concentration-inhibition curve. The Ki is a measure of affinity in units of concentration, obtained from inhibition or displacement.
